Legend:
[1] = target: T1, FGFR1 (Homo sapiens, UniProt P11362); assay: Kinase binding assay (kinase-tagged T7 phage, affinity beads, qPCR), Kd; conditions: read-out: FGFR1 (Kd nM)
T1 construct: made in house; host or cells: E. coli (BL21-derived), T7 phage
In short: (§1)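 Competition binding; kinase-tagged T7 phage lysate vs immobilised biotinylated ligand on streptavidin beads, 0.9% DMSO final. 11-pt 3-fold dilutions, 3 DMSO controls. qPCR of eluted kinase; Kd by Hill fit, slope −1.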

[2] = target: T2, FGFR3 (Homo sapiens, UniProt P22607); assay: as above; conditions: read-out: FGFR3 (Kd nM)
T2 construct: made in house; host or cells: E. coli (BL21-derived), T7 phage
In short: as §1

[3] = system: KATO-III cell line (FGFR2 amplification); assay: Cancer cell line cell viability assay (Cell Titer-Glo), 72 hr; type: cell-based; conditions: Homo sapiens, KATO III
In short: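 Luminescent ATP read-out (Cell Titer-Glo 2.0) after compound exposure, normalised to DMSO-only wells. Dosing: 9 concentrations, 4-fold steps, top 3 μM, triplicates. IC50 derived by log(inhibitor) vs. response 4-parameter fit.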

[4] = system: KG-1 cell line (FGFR 1-fusion); assay: as above; type: cell-based; conditions: Homo sapiens, KG-1, KG-1 cell line (FGFR1-fusion)
In short: (§2)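 5,000-20,000 cells/well o/n; cpd 9-pt 4x dil from 3 μM, n=3; 37° C/5% CO2; CTG 2.0 lumi; % DMSO ctrl; 4PL IC50.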

[5] = system: RT112/84 cell line (FGFR3-fusion); assay: as above; type: cell-based; conditions: Homo sapiens, RT112/84, RT112/84 cell line (FGFR3-fusion)
In short: as §2

[6] = system: MDA-MB-453 cell line (FGFR4-Y367C); assay: Cancer cell line cell viability assay (Cell Titer-Glo), 120 hr; type: cell-based; conditions: Homo sapiens
In short: as §2

T1 sequence (P11362 22-822): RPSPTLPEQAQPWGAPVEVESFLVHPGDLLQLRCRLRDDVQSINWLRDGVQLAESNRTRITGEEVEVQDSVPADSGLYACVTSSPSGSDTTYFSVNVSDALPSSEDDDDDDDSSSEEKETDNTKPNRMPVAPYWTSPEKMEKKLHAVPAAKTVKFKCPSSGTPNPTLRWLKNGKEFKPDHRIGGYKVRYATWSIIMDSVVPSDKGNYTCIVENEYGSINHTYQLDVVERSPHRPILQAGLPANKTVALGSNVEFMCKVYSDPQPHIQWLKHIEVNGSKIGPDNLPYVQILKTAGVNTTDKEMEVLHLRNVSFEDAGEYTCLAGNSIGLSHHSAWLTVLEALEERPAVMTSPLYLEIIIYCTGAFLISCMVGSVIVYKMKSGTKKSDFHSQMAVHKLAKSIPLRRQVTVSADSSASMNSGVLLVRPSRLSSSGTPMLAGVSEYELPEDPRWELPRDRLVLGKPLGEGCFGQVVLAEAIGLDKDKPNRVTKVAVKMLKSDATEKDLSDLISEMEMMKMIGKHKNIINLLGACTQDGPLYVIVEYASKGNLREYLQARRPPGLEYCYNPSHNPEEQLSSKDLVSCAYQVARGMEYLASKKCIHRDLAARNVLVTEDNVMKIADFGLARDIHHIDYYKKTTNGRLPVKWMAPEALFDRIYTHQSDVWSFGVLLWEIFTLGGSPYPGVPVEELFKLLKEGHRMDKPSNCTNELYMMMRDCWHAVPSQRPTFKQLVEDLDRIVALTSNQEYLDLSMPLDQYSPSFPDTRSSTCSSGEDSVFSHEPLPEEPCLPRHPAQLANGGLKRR
T2 sequence (P22607 23-806): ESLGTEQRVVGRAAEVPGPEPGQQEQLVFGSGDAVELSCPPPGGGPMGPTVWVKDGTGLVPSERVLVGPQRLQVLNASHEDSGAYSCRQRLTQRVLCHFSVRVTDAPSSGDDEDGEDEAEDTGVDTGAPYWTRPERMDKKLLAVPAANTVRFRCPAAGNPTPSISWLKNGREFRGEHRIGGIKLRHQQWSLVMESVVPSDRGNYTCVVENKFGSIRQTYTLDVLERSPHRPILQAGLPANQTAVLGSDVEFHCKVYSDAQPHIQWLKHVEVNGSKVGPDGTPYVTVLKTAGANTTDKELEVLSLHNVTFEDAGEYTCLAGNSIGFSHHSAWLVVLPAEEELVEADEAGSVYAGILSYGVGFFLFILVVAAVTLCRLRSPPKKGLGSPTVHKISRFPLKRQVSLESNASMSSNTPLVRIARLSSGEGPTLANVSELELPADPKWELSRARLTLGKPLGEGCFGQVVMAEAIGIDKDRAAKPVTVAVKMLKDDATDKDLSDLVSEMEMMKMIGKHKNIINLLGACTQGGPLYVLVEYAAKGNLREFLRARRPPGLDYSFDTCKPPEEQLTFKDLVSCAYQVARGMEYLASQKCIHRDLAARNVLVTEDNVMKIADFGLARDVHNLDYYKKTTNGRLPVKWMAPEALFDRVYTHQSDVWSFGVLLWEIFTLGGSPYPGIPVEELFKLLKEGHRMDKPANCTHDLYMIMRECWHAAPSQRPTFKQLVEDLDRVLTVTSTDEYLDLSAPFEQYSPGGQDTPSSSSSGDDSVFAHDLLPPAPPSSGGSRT

## CC(C)CC1(N)CN(c2ncc(-c3n[nH]c4ccc(O[C@H](C)c5c(Cl)cncc5Cl)cc34)cc2F)C1 [Example 258, (R)-1-(5-(5-(1-(3,5-dichloropyridin-4-yl)ethoxy)-1H-indazol-3-yl)-3-fluoropyridin-2-yl)-3-isobutylazetidin-3-amine]
[1]
  Kd: 1 to 50 nM
[2]
  Kd: 1 to 50 nM
[3]
  IC50: 0.05 to 0.2 µM
[4]
  IC50: 0.2 to 1 µM
[5]
  IC50: 0.0001 to 0.05 µM
[6]
  IC50: 0.2 to 1 µM

## C[C@@H](Oc1ccc2[nH]nc(-c3cnc(N4CC(N)(CCO)C4)c(F)c3)c2c1)c1c(Cl)cncc1Cl [Example 259, (R)-2-(3-amino-1-(5-(5-(1-(3,5-dichloropyridin-4-yl)ethoxy)-1H-indazol-3-yl)-3-fluoropyridin-2-yl)azetidin-3-yl)ethanol]
[1]
  Kd: 1 to 50 nM
[2]
  Kd: 1 to 50 nM
[3]
  IC50: 0.0001 to 0.05 µM
[4]
  IC50: 0.05 to 0.2 µM
[5]
  IC50: 0.0001 to 0.05 µM
[6]
  IC50: 0.0001 to 0.05 µM

## CCC1(N)CN(c2ncc(-c3n[nH]c4ccc(O[C@H](C)c5c(Cl)cncc5Cl)cc34)cc2F)C1 [Example 260, 1-[5-[5-[(1R)-1-(3,5-dichloro-4-pyridyl)ethoxy]-1H-indazol-3-yl]-3-fluoro-2-pyridyl]-3-ethyl-azetidin-3-amine]
[1]
  Kd: 1 to 50 nM
[2]
  Kd: 1 to 50 nM
[3]
  IC50: 0.05 to 0.2 µM
[4]
  IC50: 0.05 to 0.2 µM
[5]
  IC50: 0.0001 to 0.05 µM
[6]
  IC50: 0.0001 to 0.05 µM

## C[C@@H](Oc1ccc2[nH]nc(-c3cnc(N4CC(C)(OCCN5CCCC5)C4)c(F)c3)c2c1)c1c(Cl)cncc1Cl [Example 261, (R)-5-(1-(3,5-dichloropyridin-4-yl)ethoxy)-3-(5-fluoro-6-(3-methyl-3-(2-(pyrrolidin-1-yl)ethoxy)azetidin-1-yl)pyridin-3-yl)-1H-indazole]
[1]
  Kd: 1 to 50 nM
[2]
  Kd: 1 to 50 nM
[3]
  IC50: 0.0001 to 0.05 µM
[4]
  IC50: 0.05 to 0.2 µM
[5]
  IC50: 0.0001 to 0.05 µM
[6]
  IC50: 0.05 to 0.2 µM

## C[C@@H](Oc1ccc2[nH]nc(-c3cnc(N4CC(N)(CC5CC5)C4)c(F)c3)c2c1)c1c(Cl)cncc1Cl [Example 262, (R)-3-(cyclopropylmethyl)-1-(5-(5-(1-(3,5-dichloropyridin-4-yl)ethoxy)-1H-indazol-3-yl)-3-fluoropyridin-2-yl)azetidin-3-amine]
[1]
  Kd: 1 to 50 nM
[2]
  Kd: 1 to 50 nM
[3]
  IC50: 0.05 to 0.2 µM
[4]
  IC50: 0.05 to 0.2 µM
[5]
  IC50: 0.0001 to 0.05 µM
[6]
  IC50: 0.2 to 1 µM

## C=CCC1(N)CN(c2ncc(-c3n[nH]c4ccc(O[C@H](C)c5c(Cl)cncc5Cl)cc34)cc2F)C1 [Example 264, (R)-3-ally1-1-(5-(5-(1-(3,5-dichloropyridin-4-yl)ethoxy)-1H-indazol-3-yl)-3-fluoropyridin-2-yl)azetidin-3-amine]
[1]
  Kd: 1 to 50 nM
[2]
  Kd: 1 to 50 nM
[3]
  IC50: 0.05 to 0.2 µM
[4]
  IC50: 0.05 to 0.2 µM
[5]
  IC50: 0.0001 to 0.05 µM
[6]
  IC50: 0.05 to 0.2 µM

## C[C@@H](Oc1ccc2[nH]nc(-c3cnc(N4CC(N)(CC(C)(C)O)C4)c(F)c3)c2c1)c1c(Cl)cncc1Cl [Example 266, (R)-1-(3-amino-1-(5-(5-(1-(3,5-dichloropyridin-4-yl)ethoxy)-1H-indazol-3-yl)-3-fluoropyridin-2-yl)azetidin-3-yl)-2-methylpropan-2-ol]
[1]
  Kd: 1 to 50 nM
[2]
  Kd: 1 to 50 nM
[3]
  IC50: 0.05 to 0.2 µM
[4]
  IC50: 0.2 to 1 µM
[5]
  IC50: 0.0001 to 0.05 µM
[6]
  IC50: > 1 µM

## C[C@@H](Oc1ccc2[nH]nc(-c3ccc(N4CC(N)(CCO)C4)nn3)c2c1)c1c(Cl)cncc1Cl [Example 267, (R)-2-(3-amino-1-(6-(5-(1-(3,5-dichloropyridin-4-yl)ethoxy)-1H-indazol-3-yl)pyridazin-3-yl)azetidin-3-yl)ethanol]
[1]
  Kd: 1 to 50 nM
[2]
  Kd: 1 to 50 nM
[3]
  IC50: 0.05 to 0.2 µM
[4]
  IC50: > 1 µM
[5]
  IC50: 0.0001 to 0.05 µM
[6]
  IC50: 0.2 to 1 µM

Reference: US20250368666A1, “INDAZOLE COMPOUNDS” (TYRA BIOSCIENCES, INC., priority 2022, published 2025)
